The source of these data is US20260315434A1, “USE OF GUAIACOL SESQUITERPENE LACTONE DERIVATIVES” (NANJING UNIVERSITY OF CHINESE MEDICINE, priority 2023, published 2026).

In one assay the test system is MDSCs. Kind of assay: Inhibition of MDSC chemotaxis (Transwell, tumor-conditioned medium). It counts as cell-based, mouse. Particulars: Mus musculus, read-out: Suppression Rate (MDSC chemotaxis).
The next assay concerns rat arthritis. As to conditions: in vivo; cited from earlier work.
In another assay the test system is heart failure. As to conditions: human, in vivo; cited from earlier work.
Assay [1] concerns serum creatinine and blood urea nitrogen. Kind of assay: Diabetic nephropathy (STZ/HFD), serum creatinine and BUN. It counts as in vivo, C57/BL6J mice. As to conditions: 8 weeks. As to the method: Experimental animals: C57/BL6J mice, male, 12 weeks old, purchased from GemPharmatech LLC. Production license number: SCXK(Su)2023-0009. […] Animals were acclimated for 7 days before use in experiments.
Administer streptozotocin (STZ, 50 mg/kg) via intraperitoneal injection for 5 consecutive days. After 72 hours, select mice with fasting blood glucose levels exceeding 16.7 mmol/L as model mice. […] Model mice were fed a high-fat diet (HFD) providing 60% of energy from fat for 8 weeks. After 8 weeks, gavage administration commenced.
Specimen Collection: One hour after the last drug administration, enucleate the eyeball to collect blood. Allow blood to stand at room temperature for 2 hours, then centrifuge at 3000 rpm for 20 minutes. Aspirate the serum, aliquot it, and store at −70° C. for future use. After blood collection, euthanize the mice by cervical dislocation. Open the abdominal cavity, remove the kidneys, and dissect away the perirenal fat and capsule. Store the tissue at −70° C. for future use.
Serum Creatinine (Scr) and Blood Urea Nitrogen (BUN) Assay: For each sample, 10 μL of serum was used for creatinine and urea level detection. Samples were added sequentially strictly following the kit instructions. After incubation at 37° C., absorbance values were measured using an enzyme-linked immunosorbent assay (ELISA) reader. The concentration levels of each indicator were calculated based on the standard curve.

Take `C=C1C(=O)O[C@@H]2[C@H]3C(C)=CC[C@@]34O[C@@]4(C)CC[C@@H]12` [Arg, Arglabin, reference compound]: in the assay on MDSCs, the inhibition at 1 µM worked out at 42.5% and the inhibition at 10 µM worked out at 73.2%. In the assay on rat arthritis, the joint swelling result is “significantly suppressed”; the “serum levels of TNF-α, IL-1β, and IL-6” value is listed as “lowered”. The cardiac inflammation entry in the assay on heart failure is “inhibited”.

Regarding `CC1=C2CC[C@@](C)(OC(=O)N3CCCC3)[C@@H]2[C@H]2OC(=O)[C@@H](CN3CCCC3)[C@@H]2CC1` [Compound 103], in assay [1] (1 mg/kg gavage), the BUN is 54.34 ± 10.67 and the “Scr (serum creatinine)” value was 23.48 ± 6.73. Also, in assay [1] (10 mg/kg gavage), the BUN is listed as 38.10 ± 2.88 and the “Scr (serum creatinine)” value turned out to be 14.90 ± 8.06.
